Experimental data taken from patent US20180353461A1, “USE OF CANNABINOIDS AS CERAMIDE-GENERATING ANTICANCER AGENTS IN TUMORS OF THE HEMATOPOIETIC AND LYMPHOID TISSUES” (priority 2014, published 2018).

Tests used:
Format in all cases: cell-based, human
U266 cells [1] = experiment: Western blot of ER-stress regulator proteins in U266 cells; settings: U266, WIN-55 50 uM
Experimental: Samples (15-25 ug/lane) were subjected to SDS/PAGE in pre-cast polyacrylamide gels AnykD (Bio-Rad Laboratories, Hercules, CA, USA) under reducing and denaturing conditions. Electrophoretic run was performed at a constant current of 15 mA per gel in a Mini-Protean® Tetra Cell (Bio-Rad Laboratories). Once proteins were separated by electrophoresis, were transferred onto PVDF membranes using Trans-Blot® Turbo™ System (Bio-Rad Laboratories). Electrotransference was conducted at constant amperage of 1.2 mA and at up to 25 V of voltage. The blotted membranes were then blocked with 2% bovine serum albumin [(BSA), Santa Cruz Biotechnology] in Tween-Tris buffer saline (TTBS) for 30 min with gentle agitation, and incubated overnight at 4° C. with corresponding primary antibody in TTBS. After twice washing with TTBS, membranes were incubated for 1-2 h at room temperature with suitable conjugated-HRP secondary antibody, and subjected to chemiluminescence detection using Western Blotting Luminol Reagent (Santa Cruz Biotechnology). Loading controls were carried out with an anti-beta-actin and anti-beta-tubulin antibodies (Sigma-Aldrich). […]
Cannabinoids attenuate the response to ER-stress in myelomatous cells. […] To test the effect of cannabinoids on ER-stress we analyzed the expression profile of ER-stress related proteins in myelomatous cells.

HL60 cells [2] = experiment: Western blot of signaling pathways (MAPKs, Akt) in HL60 cells
Experimental: Protein analyses were performed by Western blot in several sets of assays: expression pattern of CBs-receptors in AML cell lines and primary cells, and time course after treatment with cannabinoids in AML cell lines.
Cells were solubilized with ice-cold lysis buffer containing 2% ASB-14 (CalbioChem, San Diego, Calif., USA), 1% Nonidet P-40 (Ipegal®), 137 mM NaCl, 20 mM Tris-HCl pH 7.5 at 4° C. (all from Sigma-Aldrich), 2 mM Na3VO4, 20 mM NaF (New England BioLabs Inc., Ipswich, Mass., USA), 2 mM DTT (AppliChem, Darmstadt, Germany), protease inhibitor cocktail (Roche Diagnostics GmbH, Mannheim, Germany), and 10 ul Nuclease Mix (Amersham GE Healthcare, Uppsala, Sweden). Insoluble materials were removed by centrifugation at 13,000×g for 15 min at 4° C. Protein content was determined by Pierce® Microplate BCA Protein Assay kit-Reducing Agent Compatible (Thermo Fisher Scientific).
Extracted proteins (15-25 ug/well) were separated by sodium dodecyl sulfate-polyacrylamide gel electrophoresis (SDS/PAGE) in pre-cast polyacrylamide gels AnykD (Bio-Rad Laboratories, Hercules, Calif., USA) under reducing and denaturing conditions. Electrophoretic run was performed at a constant current of 15 mA per gel in a Mini-Protean® Tetra Cell (Bio-Rad Laboratories) and were electrophoretically transferred onto PVDF membranes using Trans-Blot® Turbo™ System (Bio-Rad Laboratories). Blocking was performed with 2% bovine serum albumin [(BSA), Santa Cruz Biotechnology] in Tween-Tris buffer saline (TTBS). Membranes were incubated overnight at 4° C. with corresponding primary antibody in TTBS.
Detection was performed using Western Blotting Luminol Reagent (Santa Cruz Biotechnology).
Signaling pathways targeted by cannabinoids in leukemic cells. To get further insights into the mechanisms of cannabinoids-induced apoptosis, we assessed the expression profile of phosphorylated-JNK, -Erk1/2, -p38 MAPK and -Akt by Western blot.

U266 cells [3] = experiment: Mitochondrial transmembrane potential (TMRE assay) in U266 cells
Experimental: The loss of mitochondrial transmembrane potential (Δψm), a marker of early apoptotic events, was determined by staining with TRME [(tetramethylrhodamine-ethyl-ester-perchlorate), Santa Cruz Biotechnology Inc.]. TMRE is a cell-permeable dye that becomes fluorescent once it is inside the mitochondria and, it can be detected using a fluorescent plate reader (Tecan). Briefly, cells (10e6 cells per assay) were treated with different concentrations of WIN-55 in presence or absence of SPT-inhibitor for 15, 30, 45 and 60 min at 37° C. After washing twice, cells were incubated for 20 min at 37° C. in the dark with 1 uM TMRE. The fluorescent intensity was read in the plate reader with excitation and emission wavelengths set at 485 and 538 nm respectively for red fluorescence. For each condition, triplicate samples (at least five times) were run, fluorescent readings were corrected for background. In all assays, CCCP (2-[2-(3-Chlorophenyl) hydrazinylyidene] propanedinitrile, a potent mitochondrial uncoupler, was used as a positive control of mitochondrial potential status.
The early loss of mitochondrial-membrane potential induced by cannabinoids. To delve into the processes that participate in cannabinoid-induced apoptosis, finally we tested whether the cannabinoid treatment induces changes on Δψm in myelomatous cells. We observed that cannabinoids induced a drop of Δψm in U266 cells (FIG. 10). […]

HL60 cells [4] = experiment: Mitochondrial superoxide / ROS in HL60 cells (MitoSOX assay)
Experimental: Mitochondrial membrane potential and superoxide detection Cells (10e6 cells per assay) were treated with a concentration of WIN-55 for 15, 30, 45 and 60 min at 37° C. Fluorochromes 10 μM TMRM [(tetramethylrhodamine-ethyl-ester-perchlorate), Santa Cruz Biotechnology Inc.] to detect membrane potential, or 5 μM MitoSOX [Molecular Probes (Invitrogen)] to detect mitochondrial superoxide, were added for the last 15 min of treatment. CCCP (uncoupler of oxidative phosphorylation) or H2O2 (oxidant agent) was used as a positive control of the techniques respectively (Labbe et al., 2008). The fluorescence detection of TMRM was measured for flow citometry. Fluorescent intensity was quantified and analyzed using Infinicyt™ Software (Cytognos, Salamanca, Spain).
The MitoSOX signal was detected using a ‘Fluoroscan’ multi-well plate reader (Thermo Labsystems, Thermo Scientific), excitation/emission maxima of 543/593 nm.
To delve into the processes that participate in cannabinoid-induced apoptosis, we evaluated the potential of mitochondrial membrane potential in HL60 cells after treatment with WIN-55, at indicated times, using TMRE assay by flow citometry. We observed that cannabinoids induced a drop of Δψm in HL60 cells (FIG. 20a). The loss of potential started as early as 15 min after exposure to the cannabinoid, and continued decreasing over time. […]

What does the source list for `CS(=O)(=O)O.Cc1c(C(=O)c2cccc3ccccc23)c2cccc3c2n1[C@H](CN1CCOCC1)CO3` [WIN-55, (R)-(+)-[2,3-dihydro-5-methyl-3-(4-morpholinylmethyl)-pyrrolo-[1,2,3]-1,4-benzoxazin-6-yl]-1-naphthalenylmethanone mesylate]?
response to ER-stress: expression of CHOP, ATF-4, p-IRE1 (U266 cells [1]): attenuates the response to ER-stress; p-Erk1/2 (HL60 cells [2]; HL60, WIN-55 50 uM): slightly up-regulated; p-Akt (HL60 cells [2]; HL60, time-dependent): significantly downregulated; p-p38 MAPK (HL60 cells [2]; HL60, time-dependent): moderately downregulated; mitochondrial membrane potential (Δψm) (U266 cells [3]): early loss of potential of mitochondrial membrane; ROS by MitoSOX assay (HL60 cells [4]): increase
